Assay results from the supplement of paper PMC11061612.

How the values were obtained:
[1] = test system: NCI-H1092 (Small Cell Lung Carcinoma); test: Bliss excess, mean over the matrix (fraction); higher = more synergy
In short: (§1)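 Cell lines grown in DMEM/F12 or RPMI with 10% FBS were plated in 1536-well plates and held 24 hours at 37°C, 5% CO2 before 72 hours of exposure to two-drug dose matrices, with DMSO typically at 0.2%. CellTiter-Glo 2.0 luminescence gave viability, which was converted to inhibition. Vehicle wells were set to 0 and blank wells to 1. Combination Emax is the second-highest inhibition in the matrix, and Bliss excess is the observed combination effect minus the expected EA + EB − EA·EB, where EA and EB are the single-agent effects.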

[2] = test system: SK-LU-1 (Lung Adenocarcinoma); test: as above
In short: as §1

[3] = test system: EJM (Plasma Cell Myeloma); test: as above
In short: as §1

[4] = test system: HCC1937 (Breast Carcinoma); test: as above
In short: as §1

[5] = test system: NCI-H650 (Lung Adenocarcinoma); test: as above
In short: as §1

[6] = test system: OACM5-1 (Esophageal Adenocarcinoma); test: as above
In short: as §1

[7] = test system: HCC1500 (Breast Carcinoma); test: as above
In short: as §1

[8] = test system: CADO-ES1 (Ewing's Sarcoma); test: as above
In short: as §1

[9] = test system: NCI-H1838 (Lung Adenocarcinoma); test: as above
In short: as §1

[10] = test system: HCC2998 (Colorectal Carcinoma); test: as above
In short: as §1

[11] = test system: ALL-SIL (T-Lymphoblastic Leukemia); test: as above
In short: as §1

[12] = test system: MOG-G-UVW (Low Grade Glioma); test: combination Emax (second highest fraction inhibited in the dose matrix, 72 h); higher = more inhibition; extreme values may be limits of the assay
In short: as §1

[13] = test system: COLO-668 (Small Cell Lung Carcinoma); test: as above
In short: as §1

[14] = test system: MDA-MB-453 (Breast Carcinoma); test: as above
In short: as §1

[15] = test system: SK-N-AS (Neuroblastoma); test: as above
In short: as §1

[16] = test system: OE33 (Esophageal Adenocarcinoma); test: as above
In short: as §1

[17] = test system: SW982 (Other Solid Carcinomas); test: as above
In short: as §1

[18] = test system: NCI-H1355 (Lung Adenocarcinoma); test: as above
In short: as §1

[19] = test system: HAL-01 (B-Lymphoblastic Leukemia); test: as above
In short: as §1

[20] = test system: COLO-679 (Melanoma); test: as above
In short: as §1
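For Bliss excess, mean over the matrix in this document: after 72 h of two-drug dosing.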

SMILES	Bliss excess [1]	Bliss excess [2]	Bliss excess [3]	Bliss excess [4]	Bliss excess [5]	Bliss excess [6]	Bliss excess [7]	Bliss excess [8]	Bliss excess [9]	Bliss excess [10]	Bliss excess [11]	combination Emax [12]	combination Emax [13]	combination Emax [14]	combination Emax [15]	combination Emax [16]	combination Emax [17]	combination Emax [18]	combination Emax [19]	combination Emax [20]
CN(CCO)CC[C@H](CSc1ccccc1)Nc1ccc(S(=O)(=O)NC(=O)c2ccc(N3CCC([C@@H](O)c4ccccc4-c4ccc(Cl)cc4)CC3)cc2)cc1S(=O)(=O)C(F)(F)F [AZD4320] + Cc1cc2ncnn2cc1Nc1ncc2c(n1)n(C1CCOCC1)c(=O)n2C [AZD7648] (first compound max 1 µM, 7x7, partner max 10 µM)	0.005	0.0207	0.0347	-0.0352	-0.021	-0.0545	-0.0027	-0.0361	-0.0291	-0.0035	-0.0083	0.191	0.867	0.285	0.182	0.222	0.371	0.269	0.882	0.142
C[C@@H](c1ccc2nccn2c1)n1nnc2ncc(-c3cnn(C)c3)nc21 [Savolitinib] + Cc1c2c(nn1C)CSCc1cc(n(C)n1)CSc1cc(c3ccccc3c1)OCCCc1c(C(=O)O)n(C)c3c-2c(Cl)ccc13 [AZD5991] (first compound max 1 µM, 7x7, partner max 1 µM)	-0.0875	-0.0291	0.0066	-0.0386	-0.045	-0.0598	-0.001	0.0151	0.0218	-0.0463	-0.0355	0.343	0.257	0.261	0.314	0.328	0.119	0.207	0.291	0.163
CN(CCO)CC[C@H](CSc1ccccc1)Nc1ccc(S(=O)(=O)NC(=O)c2ccc(N3CCC([C@@H](O)c4ccccc4-c4ccc(Cl)cc4)CC3)cc2)cc1S(=O)(=O)C(F)(F)F [AZD4320] + CCN(CCO)CCCOc1ccc2c(Nc3cc(CC(=O)Nc4cccc(F)c4)[nH]n3)ncnc2c1 [AZD2811] (first compound max 1 µM, 7x7, partner max 1 µM)	0.0193	-0.0232	0.0454	-0.0513	-0.0457	0.0473	0.0758	-0.0732	0.0003	0.103	-0.0124	0.509	0.915	0.324	0.391	0.0773	0.814	0.239	0.835	0.275
Cc1cc2ncnn2cc1Nc1ncc2c(n1)n(C1CCOCC1)c(=O)n2C [AZD7648] + O=C(c1cc(Cc2n[nH]c(=O)c3ccccc23)ccc1F)N1CCN(C(=O)C2CC2)CC1 [Olaparib] (first compound max 10 µM, 7x7, partner max 10 µM)	-0.025	-0.066	-0.0369	-0.0498	-0.0247	-0.0505	-0.0234	0.0086	-0.0808	-0.023	-0.0083	0.316	0.144	0.281	0.102	0.218	0.503	0.297	0.472	0.128
Cc1c2c(nn1C)CSCc1cc(n(C)n1)CSc1cc(c3ccccc3c1)OCCCc1c(C(=O)O)n(C)c3c-2c(Cl)ccc13 [AZD5991] + Cn1cnc2c(F)c(Nc3ccc(Br)cc3Cl)c(C(=O)NOCCO)cc21 [Selumetinib] (first compound max 1 µM, 7x7, partner max 3 µM)	-0.03	-0.0225	0.0088	0.0328	0.0222	0.0491	0.0093	-0.0208	0.003	0.0417	0.0068	0.302	0.666	0.289	0.876	0.19	0.377	0.316	0.624	0.832
Cc1nc(Nc2ncc(C(=O)Nc3c(C)cccc3Cl)s2)cc(N2CCN(CCO)CC2)n1 [Dasatinib] + CC(=O)Nc1cccc(-n2c(=O)n(C3CC3)c(=O)c3c(Nc4ccc(I)cc4F)n(C)c(=O)c(C)c32)c1 [Trametinib] (first compound max 2 µM, 7x7, partner max 1 µM)	-0.0494	-0.0889	-0.0342	-0.0262	0.121	-0.0912	-0.0599	-0.0435	-0.0793	0.111	0.0316	0.677	0.458	0.224	0.558	0.641	0.936	0.482	0.526	0.757
COc1cc2ncnc(Nc3ccc(F)c(Cl)c3)c2cc1OCCCN1CCOCC1 [Gefitinib] + CC(C)n1c(=O)n(C)c2cnc3cc(F)c(-c4ccc(OCCCN5CCCCC5)nc4)cc3c21 [AZD1390] (first compound max 10 µM, 7x7, partner max 0.3 µM)	-0.0528	-0.0818	-0.0395	-0.108	-0.0791	-0.112	-0.0338	-0.0634	-0.103	-0.0541	-0.0699	0.115	0.176	0.204	0.0247	0.413	0.316	0.133	0.488	0.0902
C[C@@H](c1ccc2nccn2c1)n1nnc2ncc(-c3cnn(C)c3)nc21 [Savolitinib] + CC1(C)CCC(CN2CCN(c3ccc(C(=O)NS(=O)(=O)c4ccc(NCC5CCOCC5)c([N+](=O)[O-])c4)c(Oc4cnc5[nH]ccc5c4)c3)CC2)=C(c2ccc(Cl)cc2)C1 [Venetoclax] (first compound max 1 µM, 7x7, partner max 1 µM)	-0.0916	-0.0258	-0.0127	-0.0884	-0.0822	-0.0637	-0.008	-0.0549	-0.049	-0.0866	-0.0072	0.392	0.295	0.15	0.12	0.301	0.128	0.137	0.703	0.109
CN(CCO)CC[C@H](CSc1ccccc1)Nc1ccc(S(=O)(=O)NC(=O)c2ccc(N3CCC([C@@H](O)c4ccccc4-c4ccc(Cl)cc4)CC3)cc2)cc1S(=O)(=O)C(F)(F)F [AZD4320] + C[C@@H]1COCCN1C2=NC(=NC(=C2)C3(CC3)[S@](=N)(=O)C)C4=C5C=CNC5=NC=C4 [AZD6738] (first compound max 1 µM, 7x7, partner max 10 µM)	-0.0167	-0.0884	0.0488	-0.0241	-0.0234	0.0144	0.0444	-0.0031	-0.0445	-0.0283	0.0038	0.794	0.983	0.803	0.949	0.843	0.886	0.77	1	0.771
